Assay results: PMC9794608 (Frontiers in Veterinary Science, 2022)

Columns and labels:
[1] = system: mice; parameters: method as in PMID 32943547; conditions: cited from earlier work
[2] = system: laboratory beagle dogs; test: Repeat dose tolerability: clinical observations, hematology, serum chemistry, coagulation, urinalysis; format: in vivo
Description: Laboratory Beagle dogs (Charles River Labs, Mattawan, MI) served as surrogates in testing compounds proposed for application in canine clinical cancer care. The animals were at least six months old and weighed 6.4–8.8 kg at the initiation of study. They had routine veterinary care and had not been used in any previous studies. The study was conducted in AAALAC-accredited animal facilities [Charles River Laboratories, Inc., Mattawan, MI; NIH Office of Laboratory Animal Welfare Assurance approval (https://olaw.nih.gov/assured/app/index.html)], under review, monitoring, and approval of the facility's Institutional Animal Care and Use Committee according to U.S. Public Health Service national guidelines and regulations for the care and use of laboratory animals. The study was not designed to incorporate Good Laboratory Practices (GLP) regulatory criteria. Animals on study were monitored daily or more frequently and body weights were recorded, while periodic specimens were obtained for laboratory analyses. Clinical pathology analyses were included for hematology, serum chemistry, coagulation, urinalysis, and chemical bioanalysis was accomplished for pharmacokinetics (PK) (Table 1, repeat dose study) (Charles River Laboratories, Mattawan, MI).
Six male and six female beagle dogs were enrolled in a parallel, three-arm, fixed, repeat oral-dose study. […] All dogs were dosed on study day 1 to obtain single dose PK samples, and then dosed serially days 4–20. Dogs were fasted overnight prior to dosing and fed ad libitum 2 h (hrs) following dose administration.
On days 10 and 15, a 2-h post-dose sample was collected. […] Treatment schedule and clinical pathology specimen sampling intervals are outlined in Table 1. […]
Sampling for hematology, serum chemistry, coagulation and urinalysis was conducted to facilitate monitoring treatment effects over various time points, and values obtained were compared to pre-treatment measurements for each subject (Table 1).

## CC(C)n1nc(-c2ccc3oc(N)nc3c2)c2c(N)ncnc21 [Sapanisertib]
[1]; mice, […] sapanisertib every other day
  Kidney findings in mice, every other day dosing: did not exhibit substantive AKI
[1]; some mice given […] sapanisertib daily
  Kidney findings in mice, daily dosing: acute kidney injury (AKI) with moderate histopathological cortical tubular epithelial degeneration and necrosis
[2]; Day 20, one female dog (23502), considered unlikely to be inhibitor related
  Serum ALT, times pre-study: 2.10 x
[2]; Day 25, greater than pre-study values, 4 dogs per group
  Dogs with minimal to marked increases in urine protein concentration: three of four
[2]; Day 25, semi-quantitatively by urine dipstick
  Urine protein concentration, highest value (up to): ≥ 1,000 mg/dL
[2]; Day 25, semi-quantitatively by urine dipstick, individuals of both sexes
  Urine glucose (up to): up to 250 mg/dL
[2]; Day 25, Group 2 males and both sexes in Group 3
  Urine pH (up to): ≥ 9.0 pH
[2]; Days 6, 11, 15, 22, and/or 25, individual dogs, within normal reference range
  Activated partial thromboplastin time (APTT) prolonged, times pretreatment (up to): up to 1.21 x
[2]; Days 7 and 20, both sexes in all groups
  Serum phosphorus concentrations, times pre-study (as low as): ≥ 0.74 x
[2]; Days 7 and 20, both sexes in Group 2 and males in Group 3
  Cholesterol concentrations, times pre-study (up to): up to 1.50 x
[2]; at 11 days and thereafter, p < 0.05
  Group mean APTT versus dogs given trametinib alone: significantly different
[2]; compared to pretreatment samples
  Prothrombin time (PT) assays: No analogous effect
[2]; one male (23002) and one female (23501), Group 2, days 20 and 25, up to
  Blood neutrophils, times individual pre-study values: up to 1.95 x
[2]; various time points, most pronounced in Group 3
  Individual animal fibrinogen concentration, times pretreatment (up to): up to 2.61 x
